The source of these data is ChEMBL document CHEMBL1201862, “PubChem BioAssay data set” (2004).

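Five compound concentrations were applied to cells in 96-well plates for 48 hours; endpoints were derived by simple linear interpolation of the resulting dose-response curve. GI50 is the concentration that inhibits growth by half.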 Activity calls are given as the source filed them. Cut-off read from the data, not from the text of the source: active = GI50 up to about 1.1 µM and inactive = higher.

Test systems include 786-0; A498; COLO 205; DU-145; HL-60; Hs-578T; LOX IMVI; M14; OVCAR-3; OVCAR-8; PC-3; RPMI-8226; SK-MEL-5; SNB-75; SR; T47D; TK-10; U-251; UACC-257; UO-31.
Experiment in all cases: growth of human tumour cells (NCI), 48 h

`O=P(Oc1ccc(Cl)cc1)(Oc1ccc(Cl)cc1)N1CC1`: the GI50 in the experiment on 786-0, in the experiment on A498, with COLO 205, in the experiment with DU-145, in the experiment on HL-60 and in the experiment on Hs-578T was > 10 µM (inactive) throughout. For the same compound, the GI50 in the experiment on LOX IMVI, in the experiment on M14, in the experiment with OVCAR-3, with OVCAR-8, with PC-3 and in the experiment on RPMI-8226 was > 10 µM (inactive) each time. Moreover, the GI50 in the experiment on SK-MEL-5, with SNB-75, with SR, in the experiment with T47D, in the experiment on TK-10 and in the experiment with U-251 was > 10 µM (inactive) each time. The GI50 was 4.38 µM (inactive) in the experiment on UACC-257 and > 10 µM (inactive) with UO-31.

For `N#Cc1c(C#N)c(-c2ccccc2)n(/N=C\c2ccccc2)c1N`, the GI50 in the experiment on 786-0 was 28.1 µM (inactive); in the experiment on A498 it was 23.8 µM (inactive); with COLO 205, 22.5 µM (inactive); in the experiment on DU-145, 35.2 µM (inactive); with HL-60 it was 16.1 µM (inactive); with Hs-578T it was 15.9 µM (inactive). The GI50 in the experiment with LOX IMVI is 8.02 µM (inactive); in the experiment with M14, 24.8 µM (inactive); in the experiment with OVCAR-3, 12.9 µM (inactive); with OVCAR-8, 18 µM (inactive); in the experiment on PC-3, 14.4 µM (inactive); with RPMI-8226, 3.46 µM (inactive). Besides, the GI50 with SK-MEL-5 is 11.4 µM (inactive); with SNB-75, 19.1 µM (inactive); in the experiment with SR, 10.4 µM (inactive); with T47D, 3.37 µM (inactive); in the experiment on TK-10, 29.4 µM (inactive); in the experiment on U-251 it was 16.5 µM (inactive). For the same compound, the GI50 in the experiment on UACC-257 is 17.3 µM (inactive); in the experiment with UO-31, 19 µM (inactive).

For `CC1CN=C(N(Cc2ccc(F)cc2)C(=O)Nc2ccc(Cl)cc2)S1` (centres undefined), the GI50 was 20.5 µM (inactive) in the experiment with 786-0; 18.9 µM (inactive) in the experiment with A498; 30.3 µM (inactive) in the experiment with COLO 205; 61.9 µM (inactive) with DU-145; 17.5 µM (inactive) with HL-60; 51.3 µM (inactive) in the experiment with Hs-578T. The GI50 in the experiment on LOX IMVI is 16.1 µM (inactive); with M14 it was 0.51 µM (active); with OVCAR-3, 20.2 µM (inactive); with OVCAR-8 it was 30.1 µM (inactive); in the experiment on PC-3 it was 23 µM (inactive); in the experiment with RPMI-8226, 43.4 µM (inactive). In addition, the GI50 in the experiment with SK-MEL-5 is 13.7 µM (inactive); with SNB-75, 18.2 µM (inactive); in the experiment on SR, 26.5 µM (inactive); with T47D, 13.3 µM (inactive); in the experiment on TK-10, 21.8 µM (inactive); in the experiment with U-251, 32.4 µM (inactive). For the same compound, the GI50 is 45.9 µM (inactive) with UACC-257 and 35.2 µM (inactive) with UO-31.

As for `Oc1ccc(/C=C/c2cccc(/C=C/c3ccc(O)c(O)c3)n2)cc1O`, the GI50 in the experiment with 786-0 was 10.7 µM (inactive); in the experiment with A498 it was 12.9 µM (inactive); with COLO 205, 14.2 µM (inactive); in the experiment on DU-145 it was 3.77 µM (inactive); with HL-60 it was 2.82 µM (inactive); in the experiment on Hs-578T, 54.5 µM (inactive). Moreover, the GI50 in the experiment on LOX IMVI is 5.14 µM (inactive); with M14, 5.58 µM (inactive); with OVCAR-3, 4.05 µM (inactive); with OVCAR-8, 6.81 µM (inactive); with PC-3 it was 17.5 µM (inactive); with RPMI-8226, 3.76 µM (inactive). For the same compound, the GI50 with SK-MEL-5 is 4.72 µM (inactive); in the experiment with SNB-75 it was 6.01 µM (inactive); in the experiment with SR, 3.49 µM (inactive); in the experiment with T47D, 3.4 µM (inactive); in the experiment with TK-10, 11.4 µM (inactive); in the experiment on U-251, 3.85 µM (inactive). The GI50 in the experiment with UACC-257 was 13.9 µM (inactive); with UO-31, 3.85 µM (inactive).

Take `CC(C)Oc1cccc(N2C(NCc3c[nH]c4ccccc34)=Nc3ccncc3S2(=O)=O)c1`: the GI50 in the experiment with 786-0 is 30.3 µM (inactive); in the experiment with A498 it was 28.8 µM (inactive); in the experiment with COLO 205, 11.2 µM (inactive); in the experiment with DU-145, 42.8 µM (inactive); in the experiment on HL-60 it was 21.5 µM (inactive); in the experiment with Hs-578T, 16.2 µM (inactive). Besides, the GI50 with LOX IMVI was 26.9 µM (inactive); in the experiment with M14, 21 µM (inactive); in the experiment with OVCAR-3 it was 12.9 µM (inactive); with OVCAR-8, 29.9 µM (inactive); in the experiment on PC-3, 16.3 µM (inactive); with RPMI-8226, 7.01 µM (inactive). For the same compound, the GI50 with SK-MEL-5 is 13.9 µM (inactive); in the experiment with SNB-75, 18.3 µM (inactive); with SR, 28.8 µM (inactive); in the experiment with T47D it was 5.47 µM (inactive); in the experiment with TK-10 it was 25.2 µM (inactive); with U-251, 29.4 µM (inactive). In addition, the GI50 in the experiment with UACC-257 is 31.3 µM (inactive); with UO-31, 47.4 µM (inactive).

Turning to `COc1ccc(-n2c(N)c(C#N)c(C#N)c2-c2ccccc2)cc1`, the GI50 in the experiment on 786-0 is 45.3 µM (inactive); with A498, > 100 µM (inactive); with COLO 205, > 100 µM (inactive); in the experiment with DU-145, > 100 µM (inactive); with HL-60, > 100 µM (inactive); with Hs-578T, 6.58 µM (inactive). For the same compound, the GI50 in the experiment with LOX IMVI is > 100 µM (inactive); in the experiment with M14 it was > 100 µM (inactive); with OVCAR-3, > 100 µM (inactive); with OVCAR-8 it was 84.7 µM (inactive); with PC-3, 19.8 µM (inactive); in the experiment with RPMI-8226, > 100 µM (inactive). Moreover, the GI50 is 51.6 µM (inactive) in the experiment on SK-MEL-5; 2.74 µM (inactive) in the experiment on SNB-75; > 100 µM (inactive) with SR; 4.57 µM (inactive) with T47D; > 100 µM (inactive) with TK-10; 30.1 µM (inactive) with U-251. For the same compound, the GI50 in the experiment with UACC-257 and with UO-31 was > 100 µM (inactive) each time.

`Cc1cccc(C)c1/N=N/c1ccc(O)c(CN(C)C)c1`: the GI50 is 43.9 µM (inactive) in the experiment with 786-0; 35.6 µM (inactive) with A498; 22.3 µM (inactive) with COLO 205; > 100 µM (inactive) in the experiment on DU-145; 26.9 µM (inactive) in the experiment on HL-60; 30.8 µM (inactive) in the experiment on Hs-578T. Besides, the GI50 was 36.5 µM (inactive) in the experiment with LOX IMVI; 24.7 µM (inactive) in the experiment on M14; 45.3 µM (inactive) in the experiment on OVCAR-3; > 100 µM (inactive) in the experiment with OVCAR-8; 62.8 µM (inactive) in the experiment on PC-3; 29 µM (inactive) in the experiment with RPMI-8226. Besides, the GI50 in the experiment on SK-MEL-5 is 11.7 µM (inactive); in the experiment with SNB-75, 75.3 µM (inactive); in the experiment on SR, 34.4 µM (inactive); in the experiment with T47D, 23.6 µM (inactive); in the experiment on TK-10, 59.6 µM (inactive); in the experiment on U-251 it was > 100 µM (inactive). Further, the GI50 is 32.7 µM (inactive) in the experiment with UACC-257 and 15.6 µM (inactive) in the experiment on UO-31.

Consider `CC(C)(Oc1ccc(C2C[C@H]2Cl)cc1)C(=O)O` (some centres undefined), for which the GI50 with 786-0, in the experiment on A498, with COLO 205, in the experiment with DU-145, with HL-60 and in the experiment with Hs-578T was > 100 µM (inactive) in each case. The GI50 with LOX IMVI, with OVCAR-3, with PC-3, in the experiment on RPMI-8226, in the experiment on SK-MEL-5 and in the experiment with SNB-75 was > 100 µM (inactive) throughout. The GI50 in the experiment on SR is > 100 µM (inactive); in the experiment on T47D, 15.3 µM (inactive); with TK-10, > 100 µM (inactive); in the experiment on U-251 it was > 100 µM (inactive); in the experiment with UACC-257 it was > 100 µM (inactive).

Take `COc1cc(C2(O)c3ccccc3C3=NCCN32)cc(OC)c1OC` (centres undefined): the GI50 in the experiment with 786-0, in the experiment with A498, in the experiment on COLO 205, in the experiment on DU-145, in the experiment on HL-60 and in the experiment on Hs-578T was > 100 µM (inactive) each time. Moreover, the GI50 with LOX IMVI, in the experiment with OVCAR-3, in the experiment with PC-3, in the experiment on RPMI-8226, in the experiment on SK-MEL-5 and with SNB-75 was > 100 µM (inactive) throughout. The GI50 in the experiment with SR was 64.3 µM (inactive); with T47D it was > 100 µM (inactive); with TK-10, > 100 µM (inactive); with U-251, > 100 µM (inactive); in the experiment with UACC-257 it was > 100 µM (inactive); in the experiment on UO-31 it was > 100 µM (inactive).

With `O=C1CC(c2ccccc2Cl)C2(C(=O)NC(=O)NC2=O)C(c2ccccc2Cl)C1` (centres undefined), the GI50 with 786-0 is > 100 µM (inactive); with A498 it was > 100 µM (inactive); in the experiment with DU-145, 39.2 µM (inactive); in the experiment with HL-60, 80.4 µM (inactive); with Hs-578T it was 41.4 µM (inactive); in the experiment with LOX IMVI, 51.8 µM (inactive). Besides, the GI50 in the experiment with M14 is > 100 µM (inactive); in the experiment with OVCAR-3, 32.6 µM (inactive); with OVCAR-8 it was > 100 µM (inactive); with PC-3, > 100 µM (inactive); in the experiment with RPMI-8226, 68.2 µM (inactive); with SK-MEL-5, > 100 µM (inactive). Also, the GI50 in the experiment with SNB-75 was > 100 µM (inactive); with SR it was 58.1 µM (inactive); with T47D it was 18.8 µM (inactive); in the experiment with TK-10 it was > 100 µM (inactive); in the experiment with U-251, > 100 µM (inactive); in the experiment with UACC-257, > 100 µM (inactive). Further, the GI50 in the experiment with UO-31 was > 100 µM (inactive).
